From patent US7547718B2, “Substituted imidazoles” (Pfizer Limited, priority 2006, dated 2009)

Each molecule was assayed on Rhipicephalus sanguineus (brown dog tick) (assay: In vitro tick assay (Rhip. Funct.)). Details: unfed R. sanguineus in precoated glass vials; lowest dose at which all five ticks were seen moving; observed at 24, 48 and 72 hours.
From the text: Application of octopamine agonists to acarids for example, ticks, causes distinct behavioural changes compared to untreated control ticks. Treated ticks become agitated and move constantly, this prevents ticks attaching and feeding on a host animal to which the compound has been applied. Normal behaviour of ticks is to go into stasis when all other external stimuli are removed. Agitation and movement can be measured in vitro in the laboratory to predict efficacy and potency in vivo.
The assay was run using unfed Rhipicephalus sanguineus (brown dog tick) and precoated glass vials with an inner surface area of 34.5 cm^2. Each compound was tested in duplicate.
Compound (345 μg) was dissolved in isopropyl alcohol (500 μl) and delivered to each vial. The vials were placed on a tilting roller in a fume hood for 2 hours to allow the isopropyl alcohol to evaporate giving a compound concentration for each vial of 10 μg/cm^2. Five R. sanguineus (male and female) were added to each coated vial and the vial sealed with a firm wad of cotton wool. Vials were then kept, undisturbed, on the bench at room temperature. Observation and recordings of activity were taken at 24, 48 and 72 hours after addition of ticks to the vials. The ED100 value was determined as the lowest dose at which all five ticks were seen moving around inside the vial.
With `Cc1cccc(C(C)c2nccn2COC(=O)CC(C)C)c1C` (centres unmarked) [Example 68, {2-[1-(2,3-Dimethylphenyl)ethyl]-1H-imidazol-1-yl}methyl 3-methyl butanoate] the “Rhip. Funct. ED100” value was 0.03 mg/cm^2.
`Cc1cccc(C(C)c2nccn2COC(=O)OCCC(C)C)c1C` (centres unmarked) [Example 139, {2-[1-(2,3-Dimethylphenyl)ethyl]-1H-imidazol-1-yl}methyl 3-methyl butyl carbonate] was tested, and the “Rhip. Funct. ED100” value was “<=0.03 mg/cm^2”.
With `Cc1cccc(C(C)c2nccn2COC(=O)OC2CCC2)c1C` (centres unmarked) [Example 141, Cyclobutyl{2-[1-(2,3-dimethylphenyl)ethyl]-1H-imidazol-1-yl}methyl carbonate] the “Rhip. Funct. ED100” value was 0.03 mg/cm^2.
`Cc1cccc(C(C)c2nccn2COC(=O)NCCc2ccc(Cl)cc2Cl)c1C` (centres unmarked) [Example 148, {2-[1-(2,3-Dimethylphenyl)ethyl]-1H-imidazol-1-yl}methyl[2-(2,4-dichlorophenyl)ethyl]carbamate] was tested, and the “Rhip. Funct. ED100” value was >1 mg/cm^2.
With `CCC(CC)COC(=O)n1ccnc1[C@@H](C)c1cccc(C)c1C` [Example 233, 2-Ethyl butyl 2-[(1S)-1-(2,3-dimethylphenyl)ethyl]-1H-imidazole-1-carboxylate] the “Rhip. Funct. ED100” value was “<=10 mg/cm^2”.
For `CCC(C)C(C)COC(=O)n1ccnc1[C@@H](C)c1cccc(C)c1C` (stereo partly drawn) [Example 253, 2,3-Dimethyl pentyl 2-[(1S)-1-(2,3-dimethylphenyl)ethyl]-1H-imidazole-1-carboxylate], the “Rhip. Funct. ED100” value was 0.1 mg/cm^2.
In the case of `Cc1cccc([C@H](C)c2nccn2C(=O)OCc2c(F)c(F)c(F)c(F)c2F)c1C` [Example 270, Pentafluorobenzyl 2-[(1S)-1-(2,3-dimethylphenyl)ethyl]-1H -imidazole-1-carboxylate], the “Rhip. Funct. ED100” value is reported as “<=10 mg/cm^2”.
For `Cc1cccc([C@H](C)c2nccn2C(=O)OCc2c(C)c(C)c(C)c(C)c2C)c1C` [Example 294, Pentamethylbenzyl 2-[(1S)-1-(2,3-dimethylphenyl)ethyl]-1H -imidazole-1-carboxylate], the “Rhip. Funct. ED100” value was >0.03 mg/cm^2.
